# From US12102063B2 (SYNEXIS LLC, priority 2017, dated 2024)
# “And” between values parts separate entries of the source, which are not always exact repeats. Equal entries are not always repeated. Where two headings read alike, the source gives them in different places.
# Legend:
# Influenza A (H1N1) = test system: Influenza A (H1N1)
# Experimental: Glass slides (1″×3″) are ethanol-sanitized and autoclaved prior to testing. The slides (carriers) are placed into sterile plastic petri dishes until use. Aliquots (0.010 ml) of diluted stock Influenza A (H1N1) are aseptically spread over a 1″×1″ square area of the carrier slide to prepare a virus film.
# Virus Control carriers are placed into an adjacent modular room with the lids removed. One additional glass slide (with no virus film) is also placed into each testing chamber to perform cytotoxicity and neutralization validation controls. Upon closure of the respective study contact times (T=60 min and T=120 min), duplicate carriers are removed from each testing chamber. Duplicate carriers are also removed from the control modular room at each time point. Duplicate time zero carriers are harvested and enumerated promptly by eluting the films with 2 ml of influenza Infection Medium. Serial dilutions (1:10) are performed and dilutions 10−^1 to 10−^5 are plated in quadruplicate onto Madin-Darby Canine Kidney (MDCK) cell monolayers prepared to suitable confluency. Cell culture assay trays are incubated at 35° C. on an orbital rotator (60 rotations/minute) for 60 minutes to facilitate viral-host adsorption. Trays are removed from incubation, and Influenza infection Media is pipetted into each well (−1.0 ml). The trays are incubated for 7 days. The assay trays are observed regularly for the presence of cytotoxicity, viral cytopathic effects, and contamination. At the end of 7 days, plates are scored and the Spearman-Karber Method is used to compute viral titers and levels of cytotoxicity.
# E. coli K12 = conditions: for Log10 reduction / Log10 reduction vs. Control: DHP (+)
# Total bacteria = conditions: hatchery after DHP treatment
# Description: (§1) Hatcheries and chick production facilities are subject to heavy bacterial loads that are difficult to control. In addition to the animals themselves, there is a significant contamination of the facilities from the outside.
# Other blue green = conditions: hatchery after DHP treatment
# Description: as §1
# chicks = test system: chicks
# Experimental: Hatching eggs are obtained from a breeder farm and the eggs are subjected to standard egg cleaning and preparation procedures. Hatched chicks are collected and prepared according to standard procedures (separation of eggshells and unhatched eggs, counted, etc.). Chicks are graded according to established methods. See van de Ven et al., “Significance of chick quality score in broiler production,” Animal 6(10):1677-1683; Boerjan, “Programs for single stage incubation and chick quality,” Avian Poultry Biology Reviews 13:237-238 (2002); Tona et al, “Effects of egg storage time on spread of hatch, chick quality and chick juvenile growth,” Poultry Science 82:736-741 (2003).
# As indicated, certain studies were performed at Western Hatchery in Abbotsford, British Columbia, Canada (“Western”), under the supervision of the inventors and assignee. Approximately 4 million eggs per month are processed through the hatchery.
# The egg room is contiguous to the loading and receiving area of the facility and is exposed to the outside during deliveries for up to 2 to 3 hours daily. […] In addition to the incoming eggs, the egg room includes excess shipping boxes and pallets.
# In June 2016, the egg room and facilities are modified to add a vestibule to the loading dock with plastic curtains and upgrading the HVAC system to provide a third supply duct. […] The use of the egg room is further modified to remove unnecessary equipment including, but not limited to, pallets, cardboard boxes, and crates.
# Setter incubators are set to industry standard conditions: temperature between 37° C. and 38° C. and relative humidity between 40% and 70%.
# FIG. 6 presents the percent hatching of first quality chicks.
# [1] = test system: S. aureus ATCC 33592 (MRSA)
# Experimental: (§2) 24 and 48 hour test cultures of S. aureus, as well as all A. brasiliensis and C. difficile are prepared with 0.1% Triton X-100. A 6 hour test culture of S. aureus is prepared with 5.0% Petal Bovine Serum and no Triton. Carriers (slides) are inoculated, in duplicate per test microorganism per condition, at a target concentration of 1×10^6 CPU/Carrier. Inoculated carriers are allowed to dry at ambient temperatures, and are then placed in respective conditions to endure contact times. Carriers for S. aureus endured contact times of 6, 24, and 48 hours. Carriers for A. brasiliensis endured contact times of 12, 24, and 48 hours. […] After respective contact times, carriers are harvested in 10.0 mL of D/E Broth, vortex mixed, diluted, and plated on the appropriate growth media for each microorganism. Environmental conditions are monitored using the Drager Rohrchen, and Drager Polytron methods described in Example 1. (Note: The limit of detection for this assay is 5.0 CPU. Samples with no detectable colonies are listed as <5.00E+OO in the table).
# [2] = test system: A. brasiliensis ATCC 16404
# Experimental: as §2
# [3] = test system: bacteria on commercial eggs
# Experimental: For sampling, individual eggs are placed in Whirl-Pak bags containing 10 milliliters (ml) of tryptic soy broth and manually rubbed in bag for 1 minute each. The washed eggs are discarded. One (1) ml from each sample is transferred to a deep well plate in triplicate and 10 fold serial dilutions performed with tryptic soy broth to 10−^11 dilution. The deep well plates are incubated for 24 hours at 37° C. After incubation, 5 microliters (5 μl) of each well is stamped onto a 96-well plate containing either tryptic soy agar (TSA) or MacConkey (Macx) agar. TSA agar is a non-selective, general purpose media. Macx agar is a selective, differential culture media for Gram-negative enteric bacilli. The agar plates are incubated 24 hours at 37° C. and then scored for bacterial growth.
# A similar experiment is performed under egg cooler conditions. […] In this experiment, 300 commercial eggs are placed in the cooler and twenty (20) eggs are sampled, four times over five (5) days at 0 hours, 24 hours, 72 hours, and 120 hours as described above.
# [4] = test system: MS2 Bacteriophage ATCC 15597-B1
# Aspergillus fumigatus = conditions: hatchery after DHP treatment
# bacteria = conditions: end of test period (30 days), three locations
# Experimental: In addition, bacterial contamination in the egg room is assessed by placing blood agar plates at three locations in the room (East, North, and West) at 0, 7, and 30 days, and bacterial growth is assessed after 24 hours.
# broilers = test system: broilers
# Description: The chicks hatched according to the methods of Examples 2 and 3 are shipped to a broiler facility and raised to maturity. No additional changes to grow-out methods are made. A total of about 4 million eggs are set per month and the saleable chicks are sent to the grow-out facility. […] The wholesale price of a broiler is currently estimated at $0.85 per pound. […] See the nationalchickencouncil.org available on the web.
# [5] = Modular Room, 120 minutes contact
smiles,measurement,setting,value
"OO [DHP, dry hydrogen peroxide]",Log10,"Influenza A (H1N1); Hood Chamber, 60 minutes contact",>=2.62 Log10
same,Log10,"Influenza A (H1N1); Hood Chamber, 120 minutes contact",>=1.87 Log10
same,% Reduction,"Influenza A (H1N1); Modular Room, 60 minutes contact",87%
same,Log10,"Influenza A (H1N1); Modular Room, 60 minutes contact, DHP 0.6-1.0 ppm",0.87 Log10
same,% Reduction,Influenza A (H1N1); [5],76%
same,Log10,Influenza A (H1N1); [5],0.62 Log10
same,Log10 reduction,E. coli K12; 1 hour,>4.78 Log10
same,Log10 reduction vs. Control,E. coli K12; 1 hour,2.82 Log10
same,Log10 reduction,E. coli K12; 2 hours,>4.79 Log10
same,Log10 reduction vs. Control,E. coli K12; 2 hours,1.71 Log10
same,elimination of aerosolized bacteria from the DHP treated space,E. coli K12; within one hour,essentially eliminated
same,Reduction,Total bacteria,over 90%
same,Post,Other blue green,56
same,percent hatching of first quality chicks,"chicks; after installation of DHP to setter incubator environment, about 0.5 ppm in room",83%
same,"After Modification Cull Rate(%), Average",chicks; average of months,1.65%
same,"After Modification First Quality Chick (% Hatched), Average",chicks; average of months,80.82%
same,additional birds available for shipping to the grow-out facility,chicks; egg room DHP,"about 4,000 birds"
same,cull rate lower than before DHP modification,chicks; egg room DHP,at least 1%
same,% Reduction compared,"[1]; 6 Hours, Hood (Treated)",95.150%
same,Log Reduction compared to,"[1]; 6 Hours, Hood (Treated)",1.31 Log
same,% Reduction compared,"[1]; 6 Hours, Room (Treated)",83.053%
same,Log Reduction compared to,"[1]; 6 Hours, Room (Treated)",0.77 Log
same,% Reduction compared,"[1]; 24 Hours, Hood (Treated)",>66.667%
same,Log Reduction compared to,"[1]; 24 Hours, Hood (Treated)",>0.48 Log
same,Replicate CFU/Carrier,"[1]; 24 Hours, Hood (Treated)",<5.00E+00 CFU/Carrier
same,% Reduction compared,"[1]; 24 Hours, Room (Treated)",>88.889%
same,Average CFU/Carrier,"[1]; 24 Hours, Room (Treated)",<5.00E+00 CFU/Carrier
same,Log Reduction compared to,"[1]; 24 Hours, Room (Treated)",>0.95 Log
same,Replicate CFU/Carrier,"[1]; 24 Hours, Room (Treated)",5.00E+00 CFU/Carrier and <5.00E+00 CFU/Carrier
same,% Reduction compared,"[1]; 48 Hours, Hood (Treated)",>78.947%
same,Log Reduction compared to,"[1]; 48 Hours, Hood (Treated)",>0.68 Log
same,Replicate CFU/Carrier,"[1]; 48 Hours, Hood (Treated)",<5.00E+00 CFU/Carrier
same,% Reduction compared,"[1]; 48 Hours, Room (Treated)",>89.474%
same,Average CFU/Carrier,"[1]; 48 Hours, Room (Treated)",<5.00E+00 CFU/Carrier
same,Log Reduction compared to,"[1]; 48 Hours, Room (Treated)",>0.98 Log
same,Replicate CFU/Carrier,"[1]; 48 Hours, Room (Treated)",<5.00E+00 CFU/Carrier
same,Average CFU/Carrier,"[2]; 12 Hours, Hood (Treated)",2.18E+06 CFU/Carrier
same,Log Reduction compared to Control,"[2]; 12 Hours, Hood (Treated)",0.02 Log
same,Percent Reduction compared to Control,"[2]; 12 Hours, Hood (Treated)",4.40%
same,Average CFU/Carrier,"[2]; 12 Hours, Room (Treated)",3.10E+06 CFU/Carrier
same,Log Reduction compared to Control,"[2]; 12 Hours, Room (Treated)",None
same,Percent Reduction compared to Control,"[2]; 12 Hours, Room (Treated)",None
same,Average CFU/Carrier,"[2]; 24 Hours, Hood (Treated)",9.75E+05 CFU/Carrier
same,Log Reduction compared to Control,"[2]; 24 Hours, Hood (Treated)",0.29 Log
same,Percent Reduction compared to Control,"[2]; 24 Hours, Hood (Treated)",48.68%
same,Average CFU/Carrier,"[2]; 24 Hours, Room (Treated)",1.43E+06 CFU/Carrier
same,Log Reduction compared to Control,"[2]; 24 Hours, Room (Treated)",0.12 Log
same,Percent Reduction compared to Control,"[2]; 24 Hours, Room (Treated)",25.00%
same,Replicate CFU/Carrier,"[2]; 24 Hours, Room (Treated)",1.75E+06 CFU/Carrier
same,Average CFU/Carrier,"[2]; 48 Hours, Hood (Treated)",6.75E+05 CFU/Carrier
same,Log Reduction compared to Control,"[2]; 48 Hours, Hood (Treated)",0.28 Log
same,Percent Reduction compared to Control,"[2]; 48 Hours, Hood (Treated)",47.06%
same,Average CFU/Carrier,"[2]; 48 Hours, Room (Treated)",1.70E+06 CFU/Carrier
same,Log Reduction compared to Control,"[2]; 48 Hours, Room (Treated)",None
same,Percent Reduction compared to Control,"[2]; 48 Hours, Room (Treated)",None
same,"growth on Mac, treated group","[3]; 72 hours compared to 0 hours, p=0.001",significantly less growth
same,"growth on Mac, treated group","[3]; 120 hours compared to 0 hours, p=0.0001",significantly more growth
same,"growth on Mac, treated group","[3]; 120 hours compared to 0 hours, p=0.05",significantly less growth
same,Mac growth with treatment,"[3]; egg cooler, 0-120 hours",low throughout
same,TSA growth with treatment,"[3]; egg cooler, 0-120 hours",static until 120 hours
same,Log10 reduction,"[4]; DHP (+), 1 hour",3.54 Log10
same,Log10 reduction vs. Control,"[4]; DHP (+), 1 hour",2.70 Log10
same,elimination of airborne phage,[4]; within one hour,essentially eliminated
same,Post,Aspergillus fumigatus,1
same,"number of bacterial colonies on the blood agar plates, total",bacteria,about 30
same,Mortality Rate,"broilers; After DHP, grow-out facility",2.2%
same,Net increase(# Chicks),"broilers; After DHP, per 4,000,000 eggs set","62,000"
same,Broilers raised,"broilers; After DHP, per month","3,161,678"
same,reduction of mortality at the grow-out facility,broilers; chicks from DHP treated eggs,about 7.8%
